Measurements: US20110312973A1, “SOLID COMPOSITIONS” (priority 2010, published 2011)

Test: Aqueous solubility
Format: physicochemical

aqueous solubility: low aqueous solubility
SMILES: Cc1cnc(C(=O)N[C@H]2CCCCC/C=C\[C@@H]3C[C@@]3(C(=O)NS(=O)(=O)C3CC3)NC(=O)[C@@H]3C[C@@H](Oc4nc5ccccc5c5ccccc45)CN3C2=O)cn1 [Compound I, (2R,6S,13aS,14aR,16aS,Z)-N-(cyclopropylsulfonyl)-6-(5-methylpyrazine-2-carboxamido)-5,16-dioxo-2-(phenanthridin-6-yloxy)-1,2,3,5,6,7,8,9,10,11,13a,14,14a,15,16,16a-hexadecahydrocyclopropa[e]pyrrolo[1,2-a][1,4]diazacyclopentadecine-14a-carboxamide]
